Measurements reported in PubChem BioAssay AID192 (DTP/NCI, 2004).
Where “and” joins values, the source holds several entries; their conditions need not be identical. Equal entries are not always repeated. Toxic doses and inconclusive results are not listed.

Tested on: BDF1 mice, B16 melanoma ip, median survival T/C
Assay: NCI In Vivo Anticancer Drug Screen. Data for tumor model B16 Melanoma (intraperitoneal) in B6D2F1 (BDF1) mice
Conditions: endpoint: median survival time, higher = longer survival
Outline: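 Antitumor activity is assessed in mice bearing a transplanted tumor, with survival or tumor size compared against vehicle-dosed controls and expressed as T/C.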

[1] = dose: 12.5 mg/kg/injection, schedule: Q01DX009 (ip), vehicle: saline
[2] = dose: 25.0 mg/kg/injection, schedule: Q01DX009 (ip), vehicle: saline
[3] = dose: 50.0 mg/kg/injection, schedule: Q01DX009 (ip), vehicle: saline with Tween-80
[4] = dose: 50.0 mg/kg/injection, schedule: Q01DX009 (ip), vehicle: saline
[5] = dose: 100.0 mg/kg/injection, schedule: Q01DX009 (ip), vehicle: saline with Tween-80
[6] = dose: 100.0 mg/kg/injection, schedule: Q01DX009 (ip), vehicle: saline
[7] = dose: 100.0 mg/kg/injection, schedule: Q04DX003 (ip), vehicle: saline with Tween-80
[8] = dose: 200.0 mg/kg/injection, schedule: Q01DX009 (ip), vehicle: saline
[9] = dose: 25.0 mg/kg/injection, schedule: Q01DX009 (ip), vehicle: Klucel (hydroxypropylcellulose) (HPC)
[10] = dose: 50.0 mg/kg/injection, schedule: Q01DX009 (ip), vehicle: Klucel (hydroxypropylcellulose) (HPC)
[11] = dose: 100.0 mg/kg/injection, schedule: Q01DX009 (ip), vehicle: Klucel (hydroxypropylcellulose) (HPC)
[12] = dose: 12.5 mg/kg/injection, schedule: Q04DX003 (ip), vehicle: saline with Tween-80
[13] = dose: 25.0 mg/kg/injection, schedule: Q04DX003 (ip), vehicle: saline with Tween-80
[14] = dose: 6.25 mg/kg/injection, schedule: Q01DX009 (ip), vehicle: saline
[15] = dose: 12.5 mg/kg/injection, schedule: Q01DX009 (ip), vehicle: saline with Tween-80
[16] = dose: 25.0 mg/kg/injection, schedule: Q01DX009 (ip), vehicle: saline with Tween-80
[17] = dose: 200.0 mg/kg/injection, schedule: Q01DX009 (ip), vehicle: Klucel (hydroxypropylcellulose) (HPC)
[18] = dose: 200.0 mg/kg/injection, schedule: Q04DX003 (ip), vehicle: Klucel (hydroxypropylcellulose) (HPC)

For C1OC1CO[C@@H]1CO[C@H]2[C@@H]1OC[C@H]2OCC1CO1 (stereo partly drawn), the T/C [1] was 94 % of control, the T/C [2] was 94 % of control and the T/C [3] was 87 % of control. The T/C [4] was 115 % of control, the T/C [5] was 97 % of control and the T/C [6] was 104 % of control. The T/C [7] was 116 % of control, the T/C [8] was 326 % of control and the T/C (dose: 266.0 mg/kg/injection, schedule: Q04DX003 (ip), vehicle: saline with Tween-80) was 104 % of control. The T/C (dose: 400.0 mg/kg/injection, schedule: Q01DX009 (ip), vehicle: saline) was 327 % of control and the T/C (dose: 600.0 mg/kg/injection, schedule: Q04DX003 (ip), vehicle: saline with Tween-80) was 109 % of control.
For COc1cccc(NC(=O)Nc2ccccc2Cl)c1, the T/C (dose: 100.0 mg/kg/injection, schedule: Q01DX009 (ip), vehicle: gum acacia) was 96 % of control, the T/C (dose: 200.0 mg/kg/injection, schedule: Q01DX009 (ip), vehicle: gum acacia) was 96 % of control and the T/C (dose: 400.0 mg/kg/injection, schedule: Q01DX009 (ip), vehicle: gum acacia) was 88 % of control.
With CC12C=CC(=O)C=C1CCC1C2C(O)CC2(C)C1CCC2(O)C(=O)COC(=O)CCCc1ccc(N(CCCl)CCCl)cc1 (stereo not drawn) the T/C (dose: 15.0 mg/kg/injection, schedule: Q01DX011 (ip), vehicle: saline) was 119 % of control.
For COc1ccc(CCNC(C)=O)cc1OC, the T/C [9] was 91 % of control and the T/C [10] was 89 % of control.
C/C=C\C#N was tested, and the T/C [4] was 107 % of control and the T/C [6] was 107 % of control.
CCC(=O)c1ccc2c(c1)N(C(C)CN(C)C)c1ccccc1S2 (stereo not drawn) was tested, and the T/C [1] was 120 % of control, the T/C [2] was 110 % of control and the T/C [4] was 105 % of control.
In the case of N=C(N)c1nn(C2OC(CO)C(O)C2O)c2ncnc(N)c12 (stereo not drawn), the T/C (dose: 0.78 mg/kg/injection, schedule: Q01DX009 (ip), vehicle: Klucel (hydroxypropylcellulose) (HPC)) is reported as 97 % of control, the T/C (dose: 1.56 mg/kg/injection, schedule: Q01DX009 (ip), vehicle: Klucel (hydroxypropylcellulose) (HPC)) is reported as 98 % of control and the T/C (dose: 3.12 mg/kg/injection, schedule: Q01DX009 (ip), vehicle: Klucel (hydroxypropylcellulose) (HPC)) is reported as 93 % of control and 99 % of control. The T/C (dose: 6.25 mg/kg/injection, schedule: Q01DX009 (ip), vehicle: Klucel (hydroxypropylcellulose) (HPC)) was 102 % of control, the T/C (dose: 12.5 mg/kg/injection, schedule: Q01DX009 (ip), vehicle: Klucel (hydroxypropylcellulose) (HPC)) was 90 % of control and the T/C [9] was 101 % of control.
In the case of CSc1nc2ccccc2s1, the T/C [10] is reported as 106 % of control and the T/C [11] is reported as 115 % of control.
CCCCN(CCCC)C(=O)c1[nH]cnc1/N=N\N(C)C was tested, and the T/C [12] was 110 % of control, the T/C [13] was 92 % of control and the T/C (dose: 50.0 mg/kg/injection, schedule: Q04DX003 (ip), vehicle: saline with Tween-80) was 117 % of control. The T/C [7] was 93 % of control.
With COC1/C=C\C=C(/C)C(=O)Nc2cc3nc4cccc(Br)c4oc-3c(c2=O)CC(C)CC(OC)C(O)C(C)/C=C(\C)C1OC(N)=O (stereo not drawn) the T/C (dose: 12.5 mg/kg/injection, schedule: Q01DX005 (ip), vehicle: other) was 103 % of control, the T/C (dose: 25.0 mg/kg/injection, schedule: Q01DX005 (ip), vehicle: other) was 98 % of control and the T/C (dose: 50.0 mg/kg/injection, schedule: Q01DX005 (ip), vehicle: other) was 108 % of control. The T/C (dose: 100.0 mg/kg/injection, schedule: Q01DX005 (ip), vehicle: other) was 107 % of control and the T/C (dose: 200.0 mg/kg/injection, schedule: Q01DX005 (ip), vehicle: other) was 94 % of control.
c1ccc(C[n+]2ccc3ccccc3c2)cc1 was tested, and the T/C [14] was 105 % of control and 113 % of control, the T/C (dose: 6.25 mg/kg/injection, schedule: Q04DX003 (ip), vehicle: saline with Tween-80) was 95 % of control and the T/C [1] was 117 % of control. For the same molecule, the T/C [12] was 107 % of control, the T/C [2] was 108 % of control and 110 % of control and the T/C [13] was 100 % of control.
For Cc1ccc([NH-])c([NH-])c1.[Cl][Pt+2][Cl], the T/C (dose: 1.25 mg/kg/injection, schedule: Q01DX009 (ip), vehicle: saline with Tween-80) was 120 % of control and the T/C (dose: 5.0 mg/kg/injection, schedule: Q01DX009 (ip), vehicle: saline with Tween-80) was 161 % of control.
With NC(=O)NC(=O)c1cccc([N+](=O)[O-])c1 the T/C [3] was 104 % of control, the T/C [5] was 102 % of control and the T/C (dose: 200.0 mg/kg/injection, schedule: Q01DX009 (ip), vehicle: saline with Tween-80) was 102 % of control.
In the case of C=C(Br)CNS(C)(=O)=O, the T/C [14] is reported as 120 % of control, the T/C [1] is reported as 110 % of control and the T/C [2] is reported as 113 % of control.
For O=C(Nc1ccc(C2=NCCN2)cc1)c1ccc(C(=O)Nc2ccc(C3=NCCN3)cc2)c(Cl)c1, the T/C (dose: 3.12 mg/kg/injection, schedule: Q01DX009 (ip), vehicle: saline with Tween-80) was 93 % of control, the T/C (dose: 6.25 mg/kg/injection, schedule: Q01DX009 (ip), vehicle: saline with Tween-80) was 104 % of control and the T/C (dose: 8.0 mg/kg/injection, schedule: Q01DX009 (ip), vehicle: saline with Tween-80) was 104 % of control. For the same molecule, the T/C [15] was 108 % of control, the T/C (dose: 16.0 mg/kg/injection, schedule: Q01DX009 (ip), vehicle: saline with Tween-80) was 102 % of control and the T/C [16] was 105 % of control.
With Cc1cc(Cl)ccc1NC(=O)c1ccccc1C(=O)O the T/C [11] was 96 % of control, the T/C (dose: 100.0 mg/kg/injection, schedule: Q04DX003 (ip), vehicle: Klucel (hydroxypropylcellulose) (HPC)) was 93 % of control and the T/C [17] was 100 % of control. The T/C [18] was 96 % of control and the T/C (dose: 400.0 mg/kg/injection, schedule: Q04DX003 (ip), vehicle: Klucel (hydroxypropylcellulose) (HPC)) was 106 % of control.
In the case of COC(=O)c1n[nH]c(C(C)C)c1N=NN(C)C, the T/C (dose: 37.5 mg/kg/injection, schedule: Q01DX009 (ip), vehicle: saline with Tween-80) is reported as 110 % of control and the T/C (dose: 75.0 mg/kg/injection, schedule: Q01DX009 (ip), vehicle: saline with Tween-80) is reported as 115 % of control.
For CCOC(C[Se][Se]CC(OCC)OCC)OCC, the T/C (dose: 1.56 mg/kg/injection, schedule: Q01DX009 (ip), vehicle: saline) was 99 % of control, the T/C (dose: 3.13 mg/kg/injection, schedule: Q01DX009 (ip), vehicle: saline) was 104 % of control and the T/C [14] was 95 % of control.
For Cc1ccc(C)c(NC(=O)Nc2ccccc2C)c1, the T/C (dose: 50.0 mg/kg/injection, schedule: Q04DX003 (ip), vehicle: Klucel (hydroxypropylcellulose) (HPC)) was 87 % of control and the T/C [18] was 87 % of control.
With Cc1ccc(S(=O)(=O)N/N=C\c2cc(Cl)ccc2O)cc1 the T/C [11] was 100 % of control, the T/C [17] was 105 % of control and the T/C (dose: 400.0 mg/kg/injection, schedule: Q01DX009 (ip), vehicle: Klucel (hydroxypropylcellulose) (HPC)) was 102 % of control.
With C1CCNCC1 the T/C [2] was 100 % of control, the T/C [4] was 102 % of control and the T/C [6] was 107 % of control. The T/C [8] was 102 % of control.
In the case of O=C(O)c1nnc(C(=O)O)nn1, the T/C (dose: 12.5 mg/kg/injection, schedule: Q01DX009 (ip), vehicle: water) is reported as 101 % of control, the T/C (dose: 25.0 mg/kg/injection, schedule: Q01DX009 (ip), vehicle: water) is reported as 96 % of control and the T/C (dose: 50.0 mg/kg/injection, schedule: Q01DX009 (ip), vehicle: water) is reported as 106 % of control. For the same molecule, the T/C (dose: 100.0 mg/kg/injection, schedule: Q01DX009 (ip), vehicle: water) was 100 % of control.
In the case of O=C(O)CNC(=O)C(Br)Cc1ccccc1 (stereo not drawn), the T/C [16] is reported as 91 % of control, the T/C [3] is reported as 88 % of control and the T/C [5] is reported as 91 % of control. The T/C (dose: 400.0 mg/kg/injection, schedule: Q01DX009 (ip), vehicle: saline with Tween-80) was 89 % of control.
CC(=O)OCC12CCC(C)=CC1OC1C(=O)CC2(C)C12CO2 (stereo not drawn) was tested, and the T/C (dose: 0.5 mg/kg/injection, schedule: Q01DX009 (ip), vehicle: saline) was 101 % of control, the T/C (dose: 1.0 mg/kg/injection, schedule: Q01DX009 (ip), vehicle: saline) was 110 % of control and the T/C (dose: 2.0 mg/kg/injection, schedule: Q01DX009 (ip), vehicle: saline) was 113 % of control. The T/C (dose: 4.0 mg/kg/injection, schedule: Q01DX009 (ip), vehicle: saline) was 98 % of control.
Cc1cc(=O)[nH]c(N/N=C/c2cc(Cl)ccc2O)n1 was tested, and the T/C [15] was 93 % of control, the T/C [16] was 90 % of control and the T/C [3] was 86 % of control.
